This is an account of results in patent US8916551B2, “Heterocyclic compound and use thereof” (Takeda Pharmaceutical Company Limited, priority 2010, dated 2014).

By melting point is commonly meant the temperature, or range, at which the solid turns liquid.

The structures appear in SMILES notation.

Test system in one data set: not given
Test: not given
Conditions: not given
`O=S1(=O)CCN2C=CC=C(c3ccc(-c4ccccc4)cc3)C2=N1` [Example 14, 9-biphenyl-4-yl-3,4-dihydropyrido[2,1-c][1,2,4]thiadiazine 2,2-dioxide] returned a melting point of 315 to 316 °C.
`CC(C)c1ccc(C2=CC=CN3CCS(=O)(=O)N=C23)cc1` [Example 23, 9-[4-(1-methylethyl)phenyl]-3,4-dihydropyrido[2,1-c][1,2,4]thiadiazine 2,2-dioxide] had a melting point of 239 to 241 °C.
On the same count and under the same terms, then `CC(C)c1ccc(C#CC2=CC=CN3CCS(=O)(=O)N=C23)cc1` [Example 26, 9-{[4-(1-methylethyl)phenyl]ethynyl}-3,4-dihydropyrido[2,1-c][1,2,4]thiadiazine 2,2-dioxide], with 258 to 262 °C; and `O=S1(=O)CCN2CCCC(c3ccc(-c4ccccc4)cc3)C2=N1` (stereo not drawn) [Example 28, 9-biphenyl-4-yl-3,4,6,7,8,9-hexahydropyrido[2,1-c][1,2,4]thiadiazine 2,2-dioxide], with 238 to 239 °C.
The same measure, in the same setting: in the case of `O=S1(=O)CCN2C=CC=C(c3ccc(Oc4ccccc4)cc3)C2=N1` [Example 31, 9-(4-phenoxyphenyl)-3,4-dihydropyrido[2,1-c][1,2,4]thiadiazine 2,2-dioxide] it was 252 to 253 °C; in that of `CCC(C)c1ccc(C2=CC=CN3CCS(=O)(=O)N=C23)cc1` (stereo not drawn) [Example 32, 9-[4-(1-methylpropyl)phenyl]-3,4-dihydropyrido[2,1-c][1,2,4]thiadiazine 2,2-dioxide], 237 to 239 °C; in that of `CC(C)Oc1ccc(C2=CC=CN3CCS(=O)(=O)N=C23)cc1` [Example 33, 9-[4-(1-methylethoxy)phenyl]-3,4-dihydropyrido[2,1-c][1,2,4]thiadiazine 2,2-dioxide], 245 to 247 °C.
The same measure, in the same setting: in the case of `CC(C)(C)c1ccc(C2=CC=CN3CCS(=O)(=O)N=C23)cc1` [Example 35, 9-(4-tert-butylphenyl)-3,4-dihydropyrido[2,1-c][1,2,4]thiadiazine 2,2-dioxide] it was 291 to 292 °C; in that of `CC(C)(C)c1ccc(C2CCCN3CCS(=O)(=O)N=C23)cc1` (stereo not drawn) [Example 38, 9-(4-tert-butylphenyl)-3,4,6,7,8,9-hexahydropyrido[2,1-c][1,2,4]thiadiazine 2,2-dioxide], 232 to 236 °C; in that of `CC(C)Oc1ccc(C2CCCN3CCS(=O)(=O)N=C23)cc1` (stereo not drawn) [Example 40, 9-[4-(1-methylethoxy)phenyl]-3,4,6,7,8,9-hexahydropyrido[2,1-c][1,2,4]thiadiazine 2,2-dioxide], 191 to 192 °C.
For the compound `O=S1(=O)CCN2CCCC(c3ccc(OC(F)(F)F)cc3)C2=N1` (stereo not drawn) [Example 41, 9-[4-(trifluoromethoxy)phenyl]-3,4,6,7,8,9-hexahydropyrido[2,1-c][1,2,4]thiadiazine 2,2-dioxide], the melting point was in the range of 207 to 208 °C.
With `CC(C)c1ccc(C2CCCN3CCS(=O)(=O)N=C23)cc1` (stereo not drawn) [Example 42, 9-[4-(1-methylethyl)phenyl]-3,4,6,7,8,9-hexahydropyrido[2,1-c][1,2,4]thiadiazine 2,2-dioxide], the melting point fell in the range of 198 to 203 °C.
Turning to `O=S1(=O)CCN2C=CC=C(c3ccc(-c4ccccc4)s3)C2=N1` [Example 50, 9-(5-phenylthiophen-2-yl)-3,4-dihydropyrido[2,1-c][1,2,4]thiadiazine 2,2-dioxide], the melting point was in the range of 241 to 242 °C.
On the same count and under the same terms, in the case of `O=S1(=O)CCN2CCC[C@H](c3ccc(Oc4ccccc4)cc3)C2=N1` [Example 62, (9R)-9-(4-phenoxyphenyl)-3,4,6,7,8,9-hexahydropyrido[2,1-c][1,2,4]thiadiazine 2,2-dioxide] it was 171 to 176 °C.
Still for that read-out and setting: then `O=S1(=O)CCN2C=CC=C(c3ccc(OC4CCCC4)cc3)C2=N1` [Example 66, 9-[4-(cyclopentyloxy)phenyl]-3,4-dihydropyrido[2,1-c][1,2,4]thiadiazine 2,2-dioxide], with 254 to 256 °C; and `O=S1(=O)CCN2C=CC=C(c3ccc(OCC4CCCC4)cc3)C2=N1` [Example 74, 9-[4-(cyclopentylmethoxy)phenyl]-3,4-dihydropyrido[2,1-c][1,2,4]thiadiazine 2,2-dioxide], with 258 to 259 °C; and `O=S1(=O)CCN2C=C(Cl)C=C(c3ccc(Oc4cc(C(F)(F)F)ccn4)cc3)C2=N1` [Example 76, 7-chloro-9-(4-{[4-(trifluoromethyl)pyridin-2-yl]oxy}phenyl)-3,4-dihydropyrido[2,1-c][1,2,4]thiadiazine 2,2-dioxide], with 238 to 239 °C.
Same read-out and setting: in the case of `O=S1(=O)CCN2CCCC(c3ccc(Oc4ccc(Cl)cc4)cc3)C2=N1` (stereo not drawn) [Example 150, 9-[4-(4-chlorophenoxy)phenyl]-3,4,6,7,8,9-hexahydropyrido[2,1-c][1,2,4]thiadiazine 2,2-dioxide] it was 183 to 185 °C; in that of `O=S1(=O)CCN2C=CC=C(c3ccc(OC4CCCCC4)cc3)C2=N1` [Example 165, 9-[4-(cyclohexyloxy)phenyl]-3,4-dihydropyrido[2,1-c][1,2,4]thiadiazine 2,2-dioxide], 275 to 277 °C.
The compound `O=S1(=O)CCN2C=CC=C(c3ccc(Oc4ccccc4)cc3)C2=N1` [Example 166, 9-(4-phenoxyphenyl)-3,4-dihydropyrido[2,1-c][1,2,4]thiadiazine 2,2-dioxide] returned a melting point of 251 to 252 °C.
Compound `O=S1(=O)CCN2C=CC=C(c3ccc(Oc4ccccc4)cc3)C2=N1` [Example 167, 9-(4-phenoxyphenyl)-3,4-dihydropyrido[2,1-c][1,2,4]thiadiazine 2,2-dioxide] showed a melting point of 253 to 255 °C.
The same measure, in the same setting: then `Cc1ccc(Oc2ccc(C3=CC=CN4CCS(=O)(=O)N=C34)cc2)cc1` [Example 168, 9-[4-(4-methylphenoxy)phenyl]-3,4-dihydropyrido[2,1-c][1,2,4]thiadiazine 2,2-dioxide], with 248 to 250 °C; and `CC(F)(F)c1ccc(Oc2ccc(C3CCCN4CCS(=O)(=O)N=C34)cc2)cc1` (stereo not drawn) [Example 170, 9-{4-[4-(1,1-difluoroethyl)phenoxy]phenyl}-3,4,6,7,8,9-hexahydropyrido[2,1-c][1,2,4]thiadiazine 2,2-dioxide], with 171 to 172 °C; and `CCCOc1ccc(C2CCCN3CCS(=O)(=O)N=C23)cc1` (stereo not drawn) [Example 190, 9-(4-propoxyphenyl)-3,4,6,7,8,9-hexahydropyrido[2,1-c][1,2,4]thiadiazine 2,2-dioxide], with 169 to 170 °C.
Same read-out and setting: then `O=S1(=O)CCN2C=CC=C(c3ccc(Oc4ccc(C(F)(F)F)cc4)cc3)C2=N1` [Example 200, 9-{4-[4-(trifluoromethyl)phenoxy]phenyl}-3,4-dihydropyrido[2,1-c][1,2,4]thiadiazine 2,2-dioxide], with 253 to 255 °C; and `CCCCOc1ccc(C2=CC=CN3CCS(=O)(=O)N=C23)cc1` [Example 209, 9-(4-butoxyphenyl)-3,4-dihydropyrido[2,1-c][1,2,4]thiadiazine 2,2-dioxide], with 230 to 232 °C; and `O=S1(=O)CCN2CCN[C@@H](c3ccc(Oc4ccccc4)cc3)C2=N1` [Example 212, (9S)-(4-phenoxyphenyl)-3,4,6,7,8,9-hexahydropyrazino[2,1-c][1,2,4]thiadiazine 2,2-dioxide], with 124 to 125 °C.
Same read-out and setting: then `O=S1(=O)CCN2CCN[C@H](c3ccc(Oc4ccccc4)cc3)C2=N1` [Example 213, (9R)-9-(4-phenoxyphenyl)-3,4,6,7,8,9-hexahydropyrazino[2,1-c][1,2,4]thiadiazine 2,2-dioxide], with 124 to 125 °C; and `CCc1ccc(Oc2ccc([C@H]3CCCN4CCS(=O)(=O)N=C34)cc2)cc1` [Example 217, (9R)-9-[4-(4-ethylphenoxy)phenyl]-3,4,6,7,8,9-hexahydropyrido[2,1-c][1,2,4]thiadiazine 2,2-dioxide], with 152 to 153 °C; and `O=S1(=O)CCN2CCCC(c3ccc(Oc4ccc(C(F)(F)F)cc4)cc3)C2=N1` (stereo not drawn) [Example 233, 9-{4-[4-(trifluoromethyl)phenoxy]phenyl}-3,4,6,7,8,9-hexahydropyrido[2,1-c][1,2,4]thiadiazine 2,2-dioxide], with 177 to 179 °C.
With `O=S1(=O)CCN2CCC[C@@H](c3ccc(Oc4ccc(F)c(Cl)c4)cc3)C2=N1` [Example 457, (9S)-9-[4-(3-chloro-4-fluorophenoxy)phenyl]-3,4,6,7,8,9-hexahydropyrido[2,1-c][1,2,4]thiadiazine 2,2-dioxide], the melting point fell in the range of 154 to 156 °C.

The target in another data set is T1, AMPA receptor (human GluR1 flip/stargazin expressed in CHO-K1 cells) (Homo sapiens, UniProt P42261).
T1 construct: expressed in transfected cells; host or cells: CHO-K1
T1 sequence (P42261 19-906 isoform P42261-2 limits assumed): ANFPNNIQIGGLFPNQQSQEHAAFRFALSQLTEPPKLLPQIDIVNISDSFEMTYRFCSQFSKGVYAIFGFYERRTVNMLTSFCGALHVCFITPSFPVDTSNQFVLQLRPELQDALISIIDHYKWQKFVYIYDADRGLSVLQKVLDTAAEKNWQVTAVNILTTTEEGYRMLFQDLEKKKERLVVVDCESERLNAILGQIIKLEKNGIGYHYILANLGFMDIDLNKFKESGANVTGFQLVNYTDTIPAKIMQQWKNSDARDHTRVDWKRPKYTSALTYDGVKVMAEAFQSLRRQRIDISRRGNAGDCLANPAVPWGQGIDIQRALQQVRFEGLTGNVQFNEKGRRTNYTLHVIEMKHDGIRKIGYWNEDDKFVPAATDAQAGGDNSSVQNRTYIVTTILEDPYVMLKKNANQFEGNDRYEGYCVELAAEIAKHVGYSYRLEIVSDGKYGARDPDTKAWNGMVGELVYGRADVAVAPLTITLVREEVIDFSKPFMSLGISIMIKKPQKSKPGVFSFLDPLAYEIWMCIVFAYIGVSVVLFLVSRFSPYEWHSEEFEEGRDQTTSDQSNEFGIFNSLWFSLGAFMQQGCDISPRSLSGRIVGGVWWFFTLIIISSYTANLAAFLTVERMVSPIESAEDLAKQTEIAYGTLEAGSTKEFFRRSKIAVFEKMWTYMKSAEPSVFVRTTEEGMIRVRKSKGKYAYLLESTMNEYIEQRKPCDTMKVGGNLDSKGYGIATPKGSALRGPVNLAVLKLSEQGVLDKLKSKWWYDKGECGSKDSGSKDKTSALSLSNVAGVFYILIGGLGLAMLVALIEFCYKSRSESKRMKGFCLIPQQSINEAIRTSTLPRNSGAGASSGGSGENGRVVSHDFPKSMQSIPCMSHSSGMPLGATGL
T1 sequence (Q9Y698 whole entry partner): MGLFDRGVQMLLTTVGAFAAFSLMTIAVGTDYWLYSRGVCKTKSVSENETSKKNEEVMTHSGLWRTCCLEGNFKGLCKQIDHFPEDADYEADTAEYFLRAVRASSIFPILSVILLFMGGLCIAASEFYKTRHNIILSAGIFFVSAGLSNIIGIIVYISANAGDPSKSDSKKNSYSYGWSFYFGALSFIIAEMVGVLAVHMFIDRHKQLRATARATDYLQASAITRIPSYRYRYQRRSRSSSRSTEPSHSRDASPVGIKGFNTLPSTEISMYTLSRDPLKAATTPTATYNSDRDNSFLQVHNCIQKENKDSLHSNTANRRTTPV
Description: AMPA receptor function enhancing activity using calcium influx as index. The class given is cell-based. Particulars: test compound 30 μM with glutamic acid final 3 mM, change in fluorescence in 3 min, 100% = 3 mM glutamic acid + 300 μM cyclothiazide, 0% = 3 mM glutamic acid only. A digest of the protocol: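 CHO-K1 clone stably co-expressing human GluR1 flip and stargazin, loaded with Calcium 4 dye plus probenecid. Compound at 30 μM was added with glutamate (3 mM final) and fluorescence change followed over 3 min. Activity is expressed as % of the 3 mM glutamate plus 300 μM cyclothiazide response, with glutamate alone as 0%.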
In the case of `O=S1(=O)CCN2C=CC=C(c3ccc(-c4ccccc4)cc3)C2=N1` [Example 14, 9-biphenyl-4-yl-3,4-dihydropyrido[2,1-c][1,2,4]thiadiazine 2,2-dioxide], the “activity (%)” value came to 78%.
The same measure, in the same setting: then `CC(C)c1ccc(C2=CC=CN3CCS(=O)(=O)N=C23)cc1` [Example 23, 9-[4-(1-methylethyl)phenyl]-3,4-dihydropyrido[2,1-c][1,2,4]thiadiazine 2,2-dioxide], with 104%; and `CC(C)c1ccc(C#CC2=CC=CN3CCS(=O)(=O)N=C23)cc1` [Example 26, 9-{[4-(1-methylethyl)phenyl]ethynyl}-3,4-dihydropyrido[2,1-c][1,2,4]thiadiazine 2,2-dioxide], with 87%.
In the case of `O=S1(=O)CCN2CCCC(c3ccc(-c4ccccc4)cc3)C2=N1` (stereo not drawn) [Example 28, 9-biphenyl-4-yl-3,4,6,7,8,9-hexahydropyrido[2,1-c][1,2,4]thiadiazine 2,2-dioxide], the “activity (%)” value came out at 80%.
For `O=S1(=O)CCN2C=CC=C(c3ccc(Oc4ccccc4)cc3)C2=N1` [Example 31, 9-(4-phenoxyphenyl)-3,4-dihydropyrido[2,1-c][1,2,4]thiadiazine 2,2-dioxide], the “activity (%)” value is 79%.
As to `O=S1(=O)CCN2CCCC(c3ccc(Oc4ccccc4Cl)cc3)C2=N1` (stereo not drawn) [Example 433, 9-[4-(2-chlorophenoxy)phenyl]-3,4,6,7,8,9-hexahydropyrido[2,1-c][1,2,4]thiadiazine 2,2-dioxide], the “activity (%)” value amounted to 55%.
Still for that read-out and setting: in the case of `O=S1(=O)CCN2CCCC(c3ccc(Oc4ccc(F)c(Cl)c4)cc3)C2=N1` (stereo not drawn) [Example 447, 9-[4-(3-chloro-4-fluorophenoxy)phenyl]-3,4,6,7,8,9-hexahydropyrido[2,1-c][1,2,4]thiadiazine 2,2-dioxide] it was 78%; in that of `COc1ccc2ccc(OC3CCCN4CCS(=O)(=O)N=C34)cc2c1` (stereo not drawn) [Example 462, 9-[(7-methoxynaphthalen-2-yl)oxy]-3,4,6,7,8,9-hexahydropyrido[2,1-c][1,2,4]thiadiazine 2,2-dioxide], 69%.
